Measurements taken from ChEMBL document CHEMBL5365481, “Design, Synthesis, and Activity Evaluation of Novel Dual-Target Inhibitors with Antifungal and Immunoregulatory Properties” (J Med Chem, 2023).
≈ marks a conversion by molar mass, not a printed value. Calls of active or inactive are those of the source. The calls are words filed in the database; no cut-off is given here.

Experiments:
Candida albicans [1] = experiment: In vivo antifungal activity against Candida albicans ATCC SC5314 infected in BALB/c mouse assessed as shrinkage in infected region at 10 ug, ip for 14 days; format: functional, organism-based; settings: dose 10.0 µg, time 14.0 day
Candida albicans [2] = experiment: In vivo antifungal activity against Candida albicans ATCC SC5314 infected in BALB/c mouse assessed as disappearance of nuclei aggregation at 10 ug, ip for 14 days in presence of Biphenyl isopropyl ester by GMS staining based microscopy; format: functional, organism-based; settings: dose 10.0 µg, time 14.0 day
[3] = Toxicity in BALB/c mouse infected with Candida albicans ATCC SC5314 assessed as plasma BUN level at 10 ug, ip for 14 days; format: organism-based; settings: in vivo, 336 h, dose 10 µg, time 14 day
[4] = Toxicity in BALB/c mouse infected with Candida albicans ATCC SC5314 assessed as morphological changes in lung at 10 ug, ip for 14 days in presence of Biphenyl isopropyl ester by H and E staining based microscopy; format: organism-based; settings: in vivo, 336 h, dose 10 µg, time 14 day
Cryptococcus neoformans = experiment: Antifungal activity against Cryptococcus neoformans ZKCC 2209 assessed as inhibition of fungal growth incubated for 72 hrs by CLSI based liquid medium microdilution method; format: functional
Candida albicans [5] = experiment: Antifungal activity against fluconazole-resistant Candida albicans 17# assessed as inhibition of fungal growth incubated for 72 hrs by CLSI based liquid medium microdilution method; format: functional
Candida albicans [6] = experiment: Antifungal activity against Candida albicans ATCC SC5314 assessed as decrease in fungal cell density at 1 microM/ml incubated for 48 hrs by absorbance based assay; format: functional, organism-based
Candida albicans [7] = experiment: In vivo antifungal activity against Candida albicans ATCC SC5314 infected in BALB/c mouse assessed as decrease in PD-L1 expression level at 10 ug, ip for 14 days by Western blot analysis; format: functional, organism-based; settings: dose 10.0 µg, time 14.0 day
Candida albicans [8] = experiment: In vivo antifungal activity against Candida albicans ATCC SC5314 infected in BALB/c mouse assessed as shrinkage in infected region at 10 ug, ip for 14 days in presence of Biphenyl isopropyl ester; format: functional, organism-based; settings: dose 10.0 µg, time 14.0 day
Candida albicans [9] = experiment: In vivo antifungal activity against Candida albicans ATCC SC5314 infected in BALB/c mouse assessed as decrease in necrotic cell debris in tissue gap at 10 ug, ip for 14 days in presence of Biphenyl isopropyl ester by GMS staining based microscopy; format: functional, organism-based; settings: dose 10.0 µg, time 14.0 day
Candida albicans [10] = experiment: In vivo antifungal activity against Candida albicans ATCC SC5314 infected in BALB/c mouse assessed as decrease in IL-2 expression level at 10 ug, ip for 14 days by immunohistochemical analysis; format: functional, organism-based; settings: dose 10.0 µg, time 14.0 day
Candida albicans [11] = experiment: In vivo antifungal activity against Candida albicans ATCC SC5314 infected in BALB/c mouse assessed as decrease in IFN-gamma expression level at 10 ug, ip for 14 days by Western blot analysis; format: functional, organism-based; settings: dose 10.0 µg, time 14.0 day
Pichia kudriavzevii = experiment: Antifungal activity against Candida krusei ATCC 6258 assessed as inhibition of fungal growth incubated for 72 hrs by CLSI based liquid medium microdilution method; format: functional
Candida albicans [12] = experiment: In vivo antifungal activity against Candida albicans ATCC SC5314 infected in BALB/c mouse assessed as reversal of cell morphology to normal state at 10 ug, ip for 14 days in presence of Biphenyl isopropyl ester by GMS staining based microscopy; format: functional, organism-based; settings: dose 10.0 µg, time 14.0 day
Candida albicans [13] = experiment: Induction of mitochondrial membrane depolarization in Candida albicans ATCC SC5314 assessed as depolarized cells at 1 microM/ml incubated for 24 hrs by JC-1 staining based flow cytometry assay (reference value: 0.3 to 5.1%); format: functional
Candida albicans [14] = experiment: Induction of apoptosis in Candida albicans ATCC SC5314 assessed as normal cells at 1 microM/ml incubated for 48 hrs by Hoechst 33258/PI staining based flow cytometry (Rvb= 94.8 +/- 0.3%); format: functional
Candida albicans [15] = experiment: In vivo antifungal activity against Candida albicans ATCC SC5314 infected in BALB/c mouse assessed as decrease in number of exogenous fungal cells at 10 ug, ip for 14 days in presence of Biphenyl isopropyl ester by H and E staining based microscopy; format: functional, organism-based; settings: dose 10.0 µg, time 14.0 day
Candida albicans [16] = experiment: In vivo antifungal activity against Candida albicans ATCC SC5314 infected in BALB/c mouse assessed as fold increase in CD8+ expression level in T cells at 10 ug, ip for 14 days in presence of Biphenyl isopropyl ester by immunohistochemical analysis; format: functional, T-cell; settings: dose 10 µg, time 14 day
Candida albicans [17] = experiment: In vivo antifungal activity against Candida albicans ATCC SC5314 infected in BALB/c mouse assessed as decrease in IL-2 expression level at 10 ug, ip for 14 days in presence of Biphenyl isopropyl ester by immunohistochemical analysis; format: functional, organism-based; settings: dose 10.0 µg, time 14.0 day
Candida albicans [18] = experiment: Induction of apoptosis in Candida albicans ATCC SC5314 assessed as necrotic cells at 1 microM/ml incubated for 48 hrs by Hoechst 33258/PI staining based flow cytometry (Rvb= 0.03 +/- 0.01%); format: functional
Candida albicans [19] = experiment: Induction of apoptosis in Candida albicans ATCC SC5314 assessed as increase in blue fluorescence intensity at 1 microM/ml incubated for 48 hrs by Hoechst 33258/PI staining based fluorescence microscopy; format: functional, organism-based
Candida albicans [20] = experiment: In vivo antifungal activity against Candida albicans ATCC SC5314 infected in BALB/c mouse assessed as reversal of cell morphology to normal state at 10 ug, ip for 14 days by GMS staining based microscopy; format: functional, organism-based; settings: dose 10.0 µg, time 14.0 day
Candida albicans [21] = experiment: In vivo antifungal activity against Candida albicans ATCC SC5314 infected in BALB/c mouse assessed as decrease in IFN-gamma expression level at 10 ug, ip for 14 days in presence of Biphenyl isopropyl ester by immunohistochemical analysis; format: functional, organism-based; settings: dose 10.0 µg, time 14.0 day
[22] = biological target: Programmed cell death 1 ligand 1 (Homo sapiens, UniProt Q9NZQ7); experiment: Binding affinity to PD-L1 (unknown origin) assessed as dissociation constant by SPR analysis
Programmed cell death 1 ligand 1, sequence (Q9NZQ7 whole entry): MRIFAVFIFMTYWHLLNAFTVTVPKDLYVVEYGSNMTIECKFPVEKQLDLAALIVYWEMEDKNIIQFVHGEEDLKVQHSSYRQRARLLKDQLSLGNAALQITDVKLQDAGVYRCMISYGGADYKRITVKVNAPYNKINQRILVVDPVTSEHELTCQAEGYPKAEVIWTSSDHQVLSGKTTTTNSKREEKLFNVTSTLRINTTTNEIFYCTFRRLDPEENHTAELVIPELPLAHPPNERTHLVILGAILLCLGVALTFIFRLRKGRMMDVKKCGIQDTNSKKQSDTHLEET

Candida albicans [23] = experiment: In vivo antifungal activity against Candida albicans ATCC SC5314 infected in BALB/c mouse assessed as decrease in PD-L1 expression level at 10 ug, ip for 14 days by immunohistochemical analysis; format: functional, organism-based; settings: dose 10.0 µg, time 14.0 day
Candida albicans [24] = experiment: In vivo antifungal activity against Candida albicans ATCC SC5314 infected in BALB/c mouse assessed as fold increase in CD8+ expression level in T cells at 10 ug, ip for 14 days by immunohistochemical analysis; format: functional
Candida albicans [25] = experiment: In vivo antifungal activity against Candida albicans ATCC SC5314 infected in BALB/c mouse assessed as fold increase in CD3+ expression level in T cells at 10 ug, ip for 14 days by immunohistochemical analysis; format: functional, T-cell; settings: dose 10 µg, time 14 day
Cell membrane [26] = experiment: Induction of cell membrane integrity disruption in Candida albicans ATCC SC5314 assessed as reduced cytoplasmic density at 1 microM/ml incubated for 48 to 72 hrs by TEM analysis; format: subcellular; settings: time 48-72 hrs
Cell membrane [27] = experiment: Induction of cell membrane integrity disruption in Candida albicans ATCC SC5314 assessed as cell destruction at 1 microM/ml incubated for 96 hrs by TEM analysis; format: subcellular
[28] = biological target: Programmed cell death protein 1/Programmed cell death 1 ligand 1 (Homo sapiens, UniProt Q9NZQ7); experiment: Inhibition of PD-1/PD-L1 interaction (unknown origin) incubated for 15 mins by ELISA; format: protein-complex assay
Programmed cell death protein 1/Programmed cell death 1 ligand 1, sequence (Q15116 whole entry): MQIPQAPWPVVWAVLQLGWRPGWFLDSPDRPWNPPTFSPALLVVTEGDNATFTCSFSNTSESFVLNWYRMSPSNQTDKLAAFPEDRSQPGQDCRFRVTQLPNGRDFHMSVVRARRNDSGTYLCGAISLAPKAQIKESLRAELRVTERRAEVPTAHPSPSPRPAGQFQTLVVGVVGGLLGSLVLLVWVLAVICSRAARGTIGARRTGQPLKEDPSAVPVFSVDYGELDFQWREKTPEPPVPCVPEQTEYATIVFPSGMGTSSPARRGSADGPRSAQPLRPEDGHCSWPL
Programmed cell death protein 1/Programmed cell death 1 ligand 1, sequence (Q9NZQ7 whole entry): as the sequence (Q9NZQ7 whole entry) above

Cell membrane [29] = experiment: Induction of cell membrane integrity disruption in Candida albicans ATCC SC5314 assessed as decrease in cell wall thickness at 1 microM/ml incubated for 48 to 72 hrs by TEM analysis; format: subcellular; settings: time 48-72 hrs

| SMILES | Activity (Candida albicans [1]) | Activity [3] [mM] | MIC50 (Cryptococcus neoformans) [µg/mL] | MIC50 (Candida albicans [5]) [µg/mL] | Activity (Candida albicans [6]) | Activity (Candida albicans [7]) | Activity (Candida albicans [10]) | Activity (Candida albicans [11]) | MIC50 (Pichia kudriavzevii) [µg/mL] | Activity (Candida albicans [13]) [%] | Activity (Candida albicans [14]) [%] | Activity (Candida albicans [18]) [%] | Activity (Candida albicans [19]) | Activity (Candida albicans [20]) | Kd [22] [nM] | Activity (Candida albicans [23]) | fold change (FC) (Candida albicans [25]) | IC50 [28] [nM] | also measured |
| --- | --- | --- | --- | --- | --- | --- | --- | --- | --- | --- | --- | --- | --- | --- | --- | --- | --- | --- | --- |
| OC(Cn1cncn1)(Cn1cncn1)c1ccc(F)cc1F [FLUCONAZOLE] | Active | 24.2 | 1 (≈ 3.27 µM) | > 8 | Active | Active | Active | Active | 1 (≈ 3.27 µM) | 0.28 | 44.6 | 0.02 | Active | Active | – | – | – | – | Activity (Candida albicans [2]): Active; Activity [4]: Non-Toxic; Activity (Candida albicans [8]): Active; Activity (Candida albicans [9]): Active; Activity (Candida albicans [12]): Active; Activity (Candida albicans [15]): Active; fold change (FC) (Candida albicans [16]): 1.46; Activity (Candida albicans [17]): Active; Activity (Candida albicans [21]): Active |
| CC(=O)c1ccc(C(=O)N2CCC(NC(=O)c3nc(-n4cncn4)c4ccccc4n3)CC2)cc1 | Active | 17.9 | 0.5 (≈ 1.06 µM) | 1 (≈ 2.13 µM) | Active | Active | Active | Active | 0.25 (≈ 0.532 µM) | 1.27 | 42 | 0.02 | Active | Active | 65.5 | Active | 1.46 | 17 | Activity (Candida albicans [24]; T-cell, dose 10.0 µg, time 14.0 day): Active; Activity (Cell membrane [26]): Active; Activity (Cell membrane [27]): Active; Activity (Cell membrane [29]): Active |
| CC(C)c1ccc(C(=O)N2CCC(NC(=O)c3nc(-n4ccnc4)c4ccccc4n3)CC2)cc1 | Active | 20.2 | 0.5 (≈ 1.07 µM) | 2 (≈ 4.27 µM) | Active | Active | Active | Active | 0.5 (≈ 1.07 µM) | 0.1 | 45.3 | 0.03 | Active | Active | 60.7 | Active | 1.46 | 39 | fold change (FC) (Candida albicans [24]; dose 10 µg, time 14 day): 1.46 |
